ChEMBL document CHEMBL6153147 (J Med Chem, 2025)

Assays:
[1] = C0 in C57BL/6 mouse at 1 mg/kg, iv measured for 0.5 to 12 htr by LC-MS/MS analysis; assay type: ADME, organism-based; conditions: in vivo, time 0.5-12 hrs
[2] = target: Aurora kinase A (Homo sapiens) (UniProt O14965); experiment: Inhibition of human Aurora-A assessed as residual activity at 10 uM by kinome selectivity profiling analysis relative to control
[3] = Cmax in C57BL/6 mouse at 10 mg/kg, po measured for 0.5 to […] htr by LC-MS/MS analysis; assay type: ADME, organism-based; conditions: in vivo, time 0.5-12 hrs
[4] = AUC (0 to t) in C57BL/6 mouse at 10 mg/kg, po measured for 0.5 to […] htr by LC-MS/MS analysis; assay type: ADME, organism-based; conditions: in vivo, time 0.5-12 hrs
[5] = target: Cytochrome P450 2C9 (Homo sapiens, UniProt P11712); experiment: Inhibition of CYP2C9 in human liver microsomes using diclofenac as substrate preincubated with compound followed by substrate addition measured after 10 mins in presence of NADPH by LC-MS/MS analysis; assay type: ADME, Microsome
[6] = target: Cytochrome P450 2C8 (Homo sapiens, UniProt P10632); experiment: Inhibition of CYP2C8 in human liver microsomes using paclitaxel as substrate preincubated with compound followed by substrate addition measured after 10 mins in presence of NADPH by LC-MS/MS analysis; assay type: ADME, Microsome
[7] = tested on: A549; experiment: cells; conditions: Homo sapiens
[8] = Half life in C57BL/6 mouse at 10 mg/kg, po measured for 0.5 to 12 htr by LC-MS/MS analysis; assay type: ADME, organism-based; conditions: in vivo, time 0.5-12 hrs
[9] = target: Eukaryotic translation initiation factor 2-alpha kinase 3 (Homo sapiens) (UniProt Q9NZJ5); experiment: Inhibition of human PEK assessed as residual activity at 10 uM by kinome selectivity profiling analysis relative to control
[10] = tested on: K562; experiment: Antitumor activity against human K562 cells xenografted in BALB/c mouse assessed as suppression of tumor growth administered intragastrically for 11 days treated on every 3 to 4 days; assay type: functional, cell-based; conditions: dose 10-20 mg/kg, route ig, time 11.0 day
[11] = Metabolic stability in dog liver microsomes assessed as intrinsic clearance in microsome measured per mg protein preincubated for 5 mins followed by NADPH addition by LC-MS/MS analysis; assay type: ADME, Canis lupus familiaris; conditions: read-out: CLH
[12] = tested on: KG-1; experiment: cells; conditions: Homo sapiens
[13] = target: T1, Serine/threonine-protein kinase PLK1 (Homo sapiens, UniProt P53350); experiment: Inhibition of human PLK1 at 10 uM by kinome selectivity profiling analysis relative to control
[14] = tested on: K562; experiment: cells; conditions: Homo sapiens
[15] = Metabolic stability in human liver microsomes assessed as intrinsic clearance preincubated for 5 mins followed by NADPH addition by LC-MS/MS analysis; assay type: ADME, Microsome; conditions: read-out: CLH
[16] = target: T1, Serine/threonine-protein kinase PLK1; experiment: Inhibition of human PLK1 assessed as residual activity at 10 uM by kinome selectivity profiling analysis relative to control
[17] = target: Serine/threonine-protein kinase PLK4 (Homo sapiens) (UniProt O00444); experiment: Inhibition of human PLK4 assessed as residual activity at 10 uM by kinome selectivity profiling analysis relative to control
[18] = Solubility of compound in 0.01 M PBS at pH 7.4 assessed as fold increase equilibrated for 12 hrs by UV spectrophotometry relative to BI 2536; assay type: physicochemical; conditions: buffer, pH 7.4, 12 h
[19] = Clearance in C57BL/6 mouse at 1 mg/kg, iv measured for 0.5 to […] htr by LC-MS/MS analysis; assay type: ADME, organism-based; conditions: in vivo, time 0.5-12 hrs
[20] = target: Cytochrome P450 3A4 (Homo sapiens, UniProt P08684); experiment: Inhibition of CYP3A4 in human liver microsomes using testosterone as substrate preincubated with compound followed by substrate addition measured after 10 mins in presence of NADPH by LC-MS/MS analysis; assay type: ADME, Microsome
[21] = Volume of distribution at steady state in C57BL/6 mouse at 1 mg/kg, iv measured for 0.5 to 12 htr by LC-MS/MS analysis; assay type: ADME, organism-based; conditions: in vivo, time 0.5-12 hrs, read-out: Vdss
[22] = Tmax in C57BL/6 mouse at 1 mg/kg, iv measured for 0.5 to 12 htr by LC-MS/MS analysis; assay type: ADME, organism-based; conditions: in vivo, time 0.5-12 hrs
[23] = tested on: HEK-293T; experiment: Effect on mitochondrial membrane potential in HEK293T cells at 10 uM incubated for 24 hrs by MitoTracker Red probe based analysis; assay type: toxicity, cell-based; conditions: human
[24] = target: Cyclin-dependent kinase 6 (Homo sapiens) (UniProt Q00534); experiment: Inhibition of human CDK6 assessed as residual activity at 10 uM by kinome selectivity profiling analysis relative to control
[25] = Acute hematopoietic toxicity in mouse assessed as effect on red blood cells at 500 mg/kg, IG qd treated for 7 days; assay type: organism-based; conditions: in vivo, po, 168 h, time 7 day
[26] = AUC (0 to t) in C57BL/6 mouse at 1 mg/kg, iv measured for 0.5 to […] htr by LC-MS/MS analysis; assay type: ADME, organism-based; conditions: in vivo, time 0.5-12 hrs
[27] = target: T1, Serine/threonine-protein kinase PLK1; experiment: Inhibition of human PLK1 using ATF2 as substrate incubated for 40 mins in presence of [gamma-33P]ATP/Mg acetate by scintillation counting analysis
[28] = Acute toxicity in mouse assessed as damage in spleen at 500 mg/kg, IG qd treated for 7 days by H and E staining based analysis; assay type: organism-based; conditions: in vivo, po, 168 h, time 7 day
[29] = Selectivity ratio of IC50 for inhibition of human PLK3 using ATF2 as substrate to IC50 for inhibition of human PLK1 using ATF2 as substrate
[30] = Acute hematopoietic toxicity in mouse assessed as effect on biochemical indices at 500 mg/kg, IG qd treated for 7 days; assay type: organism-based; conditions: in vivo, po, 168 h, time 7 day
[31] = AUC (0 to infinity) in C57BL/6 mouse at 10 mg/kg, po measured for 0.5 to 12 htr by LC-MS/MS analysis; assay type: ADME, organism-based; conditions: in vivo, time 0.5-12 hrs
[32] = MRT (0 to t) in C57BL/6 mouse at 10 mg/kg, po measured for 0.5 to 12 htr by LC-MS/MS analysis; assay type: ADME, organism-based; conditions: in vivo, time 0.5-12 hrs
[33] = target: Serine/threonine-protein kinase PLK2 (Homo sapiens, UniProt Q9NYY3); experiment: Inhibition of human PLK2 assessed as residual activity at 10 uM by kinome selectivity profiling analysis relative to control
[34] = Selectivity ratio of IC50 for inhibition of human PLK2 using ATF2 as substrate to IC50 for inhibition of human PLK1 using ATF2 as substrate
[35] = target: Glycogen synthase kinase-3 beta (Homo sapiens) (UniProt P49841); experiment: Inhibition of human GSK-3beta assessed as residual activity at 10 uM by kinome selectivity profiling analysis relative to control
[36] = Tmax in C57BL/6 mouse at 10 mg/kg, po measured for 0.5 to 12 htr by LC-MS/MS analysis; assay type: ADME, organism-based; conditions: in vivo, time 0.5-12 hrs
[37] = target: Cytochrome P450 1A2 (Homo sapiens, UniProt P05177); experiment: Inhibition of CYP1A2 in human liver microsomes using phenacetin as substrate preincubated with compound followed by substrate addition measured after 10 mins in presence of NADPH by LC-MS/MS analysis; assay type: ADME, Microsome
Cytochrome P450 1A2, sequence (P05177 whole entry): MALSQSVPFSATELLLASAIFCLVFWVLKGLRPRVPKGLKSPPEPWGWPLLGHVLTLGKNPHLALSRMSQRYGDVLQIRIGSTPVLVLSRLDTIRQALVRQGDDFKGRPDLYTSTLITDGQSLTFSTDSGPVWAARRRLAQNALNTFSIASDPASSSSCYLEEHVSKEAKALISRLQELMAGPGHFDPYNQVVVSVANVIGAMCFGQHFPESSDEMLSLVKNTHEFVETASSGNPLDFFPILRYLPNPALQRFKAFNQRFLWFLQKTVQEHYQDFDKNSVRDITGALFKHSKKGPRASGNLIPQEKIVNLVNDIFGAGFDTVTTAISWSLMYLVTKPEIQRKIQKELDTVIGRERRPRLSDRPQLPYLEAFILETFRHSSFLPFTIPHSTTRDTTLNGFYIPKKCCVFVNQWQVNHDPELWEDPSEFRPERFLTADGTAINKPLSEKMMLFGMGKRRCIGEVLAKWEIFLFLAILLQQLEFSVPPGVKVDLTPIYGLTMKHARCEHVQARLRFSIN

T1 sequence (P53350 whole entry): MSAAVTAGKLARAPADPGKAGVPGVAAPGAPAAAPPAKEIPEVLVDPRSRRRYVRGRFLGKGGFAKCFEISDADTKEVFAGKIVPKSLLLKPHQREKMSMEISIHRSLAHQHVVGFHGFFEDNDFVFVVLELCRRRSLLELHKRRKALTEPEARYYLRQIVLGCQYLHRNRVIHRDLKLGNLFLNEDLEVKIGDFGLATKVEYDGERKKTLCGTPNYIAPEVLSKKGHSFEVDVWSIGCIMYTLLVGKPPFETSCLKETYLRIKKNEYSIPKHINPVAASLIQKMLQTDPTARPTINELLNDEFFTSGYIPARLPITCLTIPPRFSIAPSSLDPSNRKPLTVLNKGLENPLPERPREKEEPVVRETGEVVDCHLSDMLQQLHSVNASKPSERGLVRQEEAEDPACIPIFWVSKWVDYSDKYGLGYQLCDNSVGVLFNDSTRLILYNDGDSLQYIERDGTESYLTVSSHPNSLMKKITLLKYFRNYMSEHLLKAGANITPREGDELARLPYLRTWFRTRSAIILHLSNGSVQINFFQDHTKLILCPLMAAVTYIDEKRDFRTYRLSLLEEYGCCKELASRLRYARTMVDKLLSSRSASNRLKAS
Aurora kinase A (Homo sapiens), sequence (O14965 whole entry): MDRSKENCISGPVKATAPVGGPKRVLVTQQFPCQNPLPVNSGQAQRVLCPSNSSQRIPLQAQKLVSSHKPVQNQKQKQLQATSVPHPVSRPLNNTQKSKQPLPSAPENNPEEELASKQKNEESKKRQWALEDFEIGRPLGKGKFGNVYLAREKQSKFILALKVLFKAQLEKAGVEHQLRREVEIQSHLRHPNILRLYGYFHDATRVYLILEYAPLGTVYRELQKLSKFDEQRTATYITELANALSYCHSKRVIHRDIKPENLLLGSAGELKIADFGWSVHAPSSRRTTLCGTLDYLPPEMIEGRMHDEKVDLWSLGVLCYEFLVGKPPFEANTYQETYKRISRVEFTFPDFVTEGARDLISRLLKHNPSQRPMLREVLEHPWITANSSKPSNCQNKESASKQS
Cytochrome P450 3A4, sequence (P08684 whole entry): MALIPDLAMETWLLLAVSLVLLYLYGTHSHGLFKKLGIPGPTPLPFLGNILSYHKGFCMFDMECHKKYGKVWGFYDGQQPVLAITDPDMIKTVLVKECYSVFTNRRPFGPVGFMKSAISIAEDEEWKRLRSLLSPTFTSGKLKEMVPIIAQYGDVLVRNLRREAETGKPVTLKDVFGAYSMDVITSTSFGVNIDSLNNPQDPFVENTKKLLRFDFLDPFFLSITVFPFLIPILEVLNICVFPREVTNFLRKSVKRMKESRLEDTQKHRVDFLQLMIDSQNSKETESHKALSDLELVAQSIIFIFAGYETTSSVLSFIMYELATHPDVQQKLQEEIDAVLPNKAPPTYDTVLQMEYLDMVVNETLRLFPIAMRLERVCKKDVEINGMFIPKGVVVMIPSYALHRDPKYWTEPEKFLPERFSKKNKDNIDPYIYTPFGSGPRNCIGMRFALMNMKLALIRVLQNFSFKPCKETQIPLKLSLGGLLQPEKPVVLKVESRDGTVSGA
Cyclin-dependent kinase 6 (Homo sapiens), sequence (Q00534 whole entry): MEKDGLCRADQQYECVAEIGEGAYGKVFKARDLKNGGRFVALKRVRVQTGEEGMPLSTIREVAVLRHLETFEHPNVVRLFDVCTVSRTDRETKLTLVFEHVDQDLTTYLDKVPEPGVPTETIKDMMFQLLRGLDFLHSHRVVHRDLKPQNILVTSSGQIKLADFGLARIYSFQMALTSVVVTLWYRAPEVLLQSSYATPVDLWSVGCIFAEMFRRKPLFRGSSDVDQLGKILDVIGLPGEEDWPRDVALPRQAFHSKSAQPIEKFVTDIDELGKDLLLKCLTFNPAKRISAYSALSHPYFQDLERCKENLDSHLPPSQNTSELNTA
Cytochrome P450 2C8, sequence (P10632 whole entry): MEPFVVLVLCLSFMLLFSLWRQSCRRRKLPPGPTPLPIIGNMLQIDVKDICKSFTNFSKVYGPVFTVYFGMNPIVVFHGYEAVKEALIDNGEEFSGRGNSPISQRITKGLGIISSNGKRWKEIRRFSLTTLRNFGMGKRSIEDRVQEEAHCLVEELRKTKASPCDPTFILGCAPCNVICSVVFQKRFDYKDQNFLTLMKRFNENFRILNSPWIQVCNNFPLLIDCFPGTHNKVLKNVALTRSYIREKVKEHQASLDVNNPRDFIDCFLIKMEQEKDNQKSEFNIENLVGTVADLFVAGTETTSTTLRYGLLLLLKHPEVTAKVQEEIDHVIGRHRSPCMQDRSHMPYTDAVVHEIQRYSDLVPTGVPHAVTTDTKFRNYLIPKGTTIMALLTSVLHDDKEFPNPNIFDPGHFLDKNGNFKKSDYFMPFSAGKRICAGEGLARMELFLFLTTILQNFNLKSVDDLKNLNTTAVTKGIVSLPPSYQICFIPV
Glycogen synthase kinase-3 beta (Homo sapiens), sequence (P49841 whole entry, looked up): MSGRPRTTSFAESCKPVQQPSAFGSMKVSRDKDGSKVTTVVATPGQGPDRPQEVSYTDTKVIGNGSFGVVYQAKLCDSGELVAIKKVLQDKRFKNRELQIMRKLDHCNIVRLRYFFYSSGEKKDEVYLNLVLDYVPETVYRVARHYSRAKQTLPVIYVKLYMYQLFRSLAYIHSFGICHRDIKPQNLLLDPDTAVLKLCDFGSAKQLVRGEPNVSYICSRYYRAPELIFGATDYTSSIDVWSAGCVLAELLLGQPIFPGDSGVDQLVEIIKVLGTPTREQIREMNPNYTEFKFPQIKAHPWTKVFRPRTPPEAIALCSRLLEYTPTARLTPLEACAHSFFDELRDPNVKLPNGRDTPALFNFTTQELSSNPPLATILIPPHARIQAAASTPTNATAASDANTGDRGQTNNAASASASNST
Serine/threonine-protein kinase PLK4 (Homo sapiens), sequence (O00444 whole entry): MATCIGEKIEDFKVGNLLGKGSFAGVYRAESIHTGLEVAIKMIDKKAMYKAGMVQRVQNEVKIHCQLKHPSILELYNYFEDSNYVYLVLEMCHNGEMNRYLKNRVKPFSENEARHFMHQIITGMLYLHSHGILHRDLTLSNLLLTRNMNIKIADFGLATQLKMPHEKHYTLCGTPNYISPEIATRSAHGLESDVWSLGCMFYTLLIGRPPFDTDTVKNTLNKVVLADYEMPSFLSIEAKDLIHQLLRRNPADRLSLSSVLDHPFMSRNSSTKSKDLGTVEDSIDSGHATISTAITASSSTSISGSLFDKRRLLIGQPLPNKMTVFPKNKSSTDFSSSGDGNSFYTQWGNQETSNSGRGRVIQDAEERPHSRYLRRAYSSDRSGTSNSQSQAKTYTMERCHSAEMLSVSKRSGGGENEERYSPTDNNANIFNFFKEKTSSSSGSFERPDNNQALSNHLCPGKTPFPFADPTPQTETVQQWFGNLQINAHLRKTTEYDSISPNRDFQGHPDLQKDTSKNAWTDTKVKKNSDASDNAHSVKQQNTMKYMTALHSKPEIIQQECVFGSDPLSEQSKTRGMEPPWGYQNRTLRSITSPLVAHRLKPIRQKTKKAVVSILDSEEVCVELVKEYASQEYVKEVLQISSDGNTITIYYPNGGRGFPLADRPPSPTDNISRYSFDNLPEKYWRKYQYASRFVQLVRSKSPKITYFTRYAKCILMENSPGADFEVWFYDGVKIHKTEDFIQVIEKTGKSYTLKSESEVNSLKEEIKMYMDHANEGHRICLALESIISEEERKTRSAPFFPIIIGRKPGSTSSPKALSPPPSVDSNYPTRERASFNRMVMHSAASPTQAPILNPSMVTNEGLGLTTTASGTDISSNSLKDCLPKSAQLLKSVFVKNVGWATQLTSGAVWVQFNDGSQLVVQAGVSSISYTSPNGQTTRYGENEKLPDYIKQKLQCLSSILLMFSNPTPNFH
Cytochrome P450 2C9, sequence (P11712 whole entry): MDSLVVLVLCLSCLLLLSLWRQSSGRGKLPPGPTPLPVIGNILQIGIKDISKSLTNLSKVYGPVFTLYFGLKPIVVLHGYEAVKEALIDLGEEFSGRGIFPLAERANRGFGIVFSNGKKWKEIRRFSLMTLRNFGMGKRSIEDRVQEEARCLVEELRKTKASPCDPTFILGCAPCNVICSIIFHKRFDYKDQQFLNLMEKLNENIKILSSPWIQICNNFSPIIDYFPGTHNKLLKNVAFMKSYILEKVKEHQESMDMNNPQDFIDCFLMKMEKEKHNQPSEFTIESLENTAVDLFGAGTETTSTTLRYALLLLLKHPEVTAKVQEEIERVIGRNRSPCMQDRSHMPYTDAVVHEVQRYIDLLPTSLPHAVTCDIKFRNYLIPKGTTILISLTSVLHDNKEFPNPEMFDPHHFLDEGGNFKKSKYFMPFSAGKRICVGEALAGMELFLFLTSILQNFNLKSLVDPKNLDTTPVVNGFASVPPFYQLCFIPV

## CC[C@@H]1C(=O)N(C)c2cnc(Nc3cc(N4CCN(C)CC4)cc(Cl)c3OCCCO)nc2N1C1CCCC1
[1]
  C0: 328 ng/mL
[2]
  Activity: 110%
[3]
  Cmax: 328 ng/mL
[4]
  AUC(0-t): 820 ng·h/mL
[5]
  IC50: 9.6 µM
[6]
  IC50: > 10 µM
[7]
  IC50: 0.032 µM
[8]
  half-life: 72 min
[9]
  Activity: 80%
[10]
  Activity: Dose-dependent-effect; Demonstrated Comparable Or Remarkably Improved Therapeutic Efficacy Compared To Bi 2536 At 10 Mg/Kg (I.P.)
[11]
  microsomal CLint: 190 µL/min/mg
[12]
  IC50: > 10 µM
[13]
  inhibition: 100%
[14]
  IC50: 0.08 nM
[15]
  CLint scaled: 85.6 mL/min/kg
[16]
  Activity: -2%
[17]
  Activity: 104%
[18]
  fold change (FC): > 2
[19]
  clearance: 91 mL/min/kg
[20]
  IC50: > 10 µM
[21]
  Vd: 3.6 L/kg
[22]
  Tmax: 4.98 min
[23]
  Activity: Non-toxic
[24]
  Activity: 103%
[25]
  Activity: Non-toxic
[26]
  AUC(0-t): 181 ng·h/mL
[27]
  IC50: 0.02 µM
[28]
  Activity: Non-toxic
[29]
  ratio: 197
[30]
  Activity: Non-toxic
[31]
  AUC(0-inf): 825 ng·h/mL
[32]
  MRT last: 120 min
[33]
  Activity: 48%
[34]
  ratio: > 601
[35]
  Activity: 112%
[36]
  Tmax: 45 min
[37]
  IC50: > 10 µM
